# Source: patent publication EP3578378B1, “RECORDING MEDIUM AND METHOD FOR PRODUCING RECORDING MEDIUM” (CANON KABUSHIKI KAISHA, priority 2018, dated 2019)
# Test: Solubility of compound (B) in water at 20°C (10.0 g sample in 100 mL ion-exchange water, undissolved or recrystallized sample weighed)
# Assay type: physicochemical
# Conditions: stirred at 80°C for one hour, cooled to 20°C, more than 10.0 g/100 mL if completely dissolved
# Experimental: The method for measuring this solubility is as follows.
# First, 10.0 g of a sample to be measured is added to 100 mL of ion-exchange water, and the resulting mixture is stirred at 80°C for one hour to dissolve the sample. Next, the resulting solution in which the sample is dissolved is cooled to 20°C. The sample that remains without being dissolved or is recrystallized is collected, and the weight thereof is determined. […] Crosslinking Agent
Solubility in water at 20°C [g/100 mL],solubility thermodynamic at 1 h [mg/mL],SMILES
2.0,–,"O=C(O)c1ccc(C(=O)O)c(C(=O)O)c1 [Trimellitic acid, trimellitic acid]"
>10,–,"[Cl-].[Cl-].[O]=[Zr+2] [ZrOCl2, reference compound]"
>10.0,–,"O=C(O)/C=C\C(=O)O [Maleic acid, maleic acid, reference compound]"
0.5,–,"O=C(O)/C=C/C(=O)O [Fumaric acid, fumaric acid]"
>10,–,"CC(=O)[O-].CC(=O)[O-].[O-2].[Zr+4] [ZrO(C2H3O2)2, reference compound]"
0.2,–,"NC(=O)c1cc(C(N)=O)cc(C(N)=O)c1 [Trimesamide, trimesamide]"
2.0,–,"O=C(O)c1cccc(C(=O)O)c1C(=O)O [Hemimellitic acid, hemimellitic acid]"
0.2,–,"NC(=O)/C=C/C(N)=O [Fumaramide, fumaramide]"
–,> 100,"Oc1ccc(O)c(O)c1 [1,2,4-Trihydroxybenzene, 1,2,4-trihydroxybenzene, reference compound]"
0.5,–,"O=C(O)c1cc(C(=O)O)cc(C(=O)O)c1 [Trimesic acid, trimesic acid]"
–,15,"O=C(O)c1cc(C(=O)O)c(C(=O)O)cc1C(=O)O [Pyromellitic acid, pyromellitic acid]"

SMILES,Solubility in water at 20°C [g/100 mL],solubility thermodynamic at 1 h [mg/mL]
"O=C(O)c1cc(O)c(O)c(O)c1 [Gallic acid, gallic acid]",1.0,–
